Assays:
recombinant human ER-α = biological target: T1, recombinant human ER-α (Homo sapiens, UniProt P03372); assay: ER-α competitor binding assay, fluorescence polarization, displacement of ES2; conditions: at the concentration of 100,000 nM
T1 sequence (P03372 1-595): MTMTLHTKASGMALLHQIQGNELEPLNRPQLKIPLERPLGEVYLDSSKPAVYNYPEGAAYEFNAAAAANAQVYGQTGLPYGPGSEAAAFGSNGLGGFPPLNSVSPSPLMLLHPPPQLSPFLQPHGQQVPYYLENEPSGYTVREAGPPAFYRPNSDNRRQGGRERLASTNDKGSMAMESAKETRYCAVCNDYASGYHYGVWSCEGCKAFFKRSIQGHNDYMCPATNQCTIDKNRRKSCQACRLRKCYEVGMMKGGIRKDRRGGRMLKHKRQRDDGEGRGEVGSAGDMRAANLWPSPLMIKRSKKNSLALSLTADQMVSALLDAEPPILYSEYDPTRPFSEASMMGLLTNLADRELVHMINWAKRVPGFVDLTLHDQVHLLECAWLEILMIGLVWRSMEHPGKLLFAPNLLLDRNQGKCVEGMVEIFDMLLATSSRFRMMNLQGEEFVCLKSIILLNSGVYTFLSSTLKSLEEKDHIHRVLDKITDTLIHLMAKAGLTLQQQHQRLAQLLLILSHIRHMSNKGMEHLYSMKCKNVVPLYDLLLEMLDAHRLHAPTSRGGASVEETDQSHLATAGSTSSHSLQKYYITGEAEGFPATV

[1] = biological target: T2, recombinant human aromatase (CYP19) (Homo sapiens, UniProt P11511); assay: Inhibition of recombinant human aromatase; format: biochemical
T2 sequence (P11511 1-503): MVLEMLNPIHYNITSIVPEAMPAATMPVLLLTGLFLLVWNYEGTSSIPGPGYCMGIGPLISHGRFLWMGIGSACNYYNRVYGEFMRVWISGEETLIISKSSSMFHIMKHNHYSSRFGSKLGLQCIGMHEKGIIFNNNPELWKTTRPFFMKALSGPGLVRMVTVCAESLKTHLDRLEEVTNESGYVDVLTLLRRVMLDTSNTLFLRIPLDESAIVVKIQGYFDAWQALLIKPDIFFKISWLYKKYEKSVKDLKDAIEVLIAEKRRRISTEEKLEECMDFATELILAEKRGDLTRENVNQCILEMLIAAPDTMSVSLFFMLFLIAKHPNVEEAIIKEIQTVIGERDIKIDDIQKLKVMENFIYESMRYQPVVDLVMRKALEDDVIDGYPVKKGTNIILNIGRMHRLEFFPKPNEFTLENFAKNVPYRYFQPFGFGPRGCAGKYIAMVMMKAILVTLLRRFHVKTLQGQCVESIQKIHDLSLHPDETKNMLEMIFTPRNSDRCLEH

Recombinant CYP2A6 = biological target: T3, Recombinant CYP2A6 (Homo sapiens, UniProt P11509); assay: Inhibition of recombinant CYP2A6; format: biochemical
T3 sequence (P11509 1-494): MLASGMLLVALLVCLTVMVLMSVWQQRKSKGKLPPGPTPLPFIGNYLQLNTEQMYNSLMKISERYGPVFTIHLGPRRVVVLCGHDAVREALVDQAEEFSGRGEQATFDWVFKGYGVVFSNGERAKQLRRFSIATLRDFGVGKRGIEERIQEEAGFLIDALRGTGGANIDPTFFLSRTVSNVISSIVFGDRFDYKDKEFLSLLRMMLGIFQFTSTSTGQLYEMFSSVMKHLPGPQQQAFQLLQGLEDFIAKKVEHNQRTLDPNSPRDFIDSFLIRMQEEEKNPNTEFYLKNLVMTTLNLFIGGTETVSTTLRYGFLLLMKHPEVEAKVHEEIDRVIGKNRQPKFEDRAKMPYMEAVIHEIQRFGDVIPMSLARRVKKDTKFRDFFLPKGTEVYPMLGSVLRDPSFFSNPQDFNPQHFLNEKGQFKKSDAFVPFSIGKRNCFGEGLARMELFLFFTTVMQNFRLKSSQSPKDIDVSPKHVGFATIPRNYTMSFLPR

Recombinant CYP2D6 = Recombinant CYP2D6 (Homo sapiens, UniProt P10635); conditions: previously published; cited from earlier work
Recombinant CYP2D6, sequence (P10635 whole entry): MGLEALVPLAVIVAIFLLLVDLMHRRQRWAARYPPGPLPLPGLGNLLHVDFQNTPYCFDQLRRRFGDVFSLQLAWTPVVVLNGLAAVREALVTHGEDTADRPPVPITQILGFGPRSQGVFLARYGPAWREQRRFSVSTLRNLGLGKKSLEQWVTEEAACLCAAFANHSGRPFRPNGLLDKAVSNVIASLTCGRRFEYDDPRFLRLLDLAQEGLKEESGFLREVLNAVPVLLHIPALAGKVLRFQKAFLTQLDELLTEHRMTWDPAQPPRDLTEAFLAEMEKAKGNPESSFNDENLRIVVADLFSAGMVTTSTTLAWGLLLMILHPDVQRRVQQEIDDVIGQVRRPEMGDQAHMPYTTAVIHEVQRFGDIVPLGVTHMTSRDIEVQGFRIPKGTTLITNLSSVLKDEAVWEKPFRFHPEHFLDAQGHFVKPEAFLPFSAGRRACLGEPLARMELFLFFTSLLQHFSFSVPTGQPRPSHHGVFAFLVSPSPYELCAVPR

Row | Compound | Percent ER competition, ER-α (recombinant human ER-α) | other results
1 | CC(C)/C(=C(/c1ccc(O)cc1)c1ccc(OCCN)cc1)c1ccccc1 [Compound 29d, 4-(1-(4-(2-Aminoethoxy)phenyl)-3-methyl-2-phenylbut-1-enyl)phenol] | 54% competition | –
2 | CC/C(=C(/c1ccc(O)cc1)c1ccc(OCC(=O)O)cc1)c1ccccc1 [Compound 49, 2-(4-(1-(4-Hydroxyphenyl)-2-phenylbut-1-en-1-yl)phenoxy)acetic Acid] | 55% competition | –
3 | CC/C(=C(/c1ccc(O)cc1)c1ccc(OCCO)cc1)c1ccccc1 [Compound 48, 4-(1-(4-(2-Hydroxyethoxy)phenyl)-2-phenylbut-1-en-1-yl)phenol] | 62% competition | –
4 | CC/C(=C(/c1ccc(O)cc1)c1ccc(OCCN)cc1)c1ccc(O)cc1 [Compound 10, 4,4'-(1-(4-(2-Aminoethoxy)phenyl)but-1-ene-1,2-diyl)diphenol] | – | Potency against aromatase (CYP19) relative to norendoxifen ([1]; Ki 20.0 nM versus Ki […] nM): 4 fold; Selectivity toward CYP19 versus all other CYP P450 enzymes tested ([1]; other than CYP1A2, from Ki values): > 21 fold; IC50 (Recombinant CYP2A6): 6.73 ± 0.66 µM
5 | CC/C(=C(/c1ccc(O)cc1)c1ccc(OCCN)cc1)c1ccccc1 [Norendoxifen] | – | Recombinant CYP2D6 IC50 (nM) (Recombinant CYP2D6): No inhibition; Recombinant CYP2D6 Ki (nM) (Recombinant CYP2D6): No inhibition
6 | CC/C(=C(/c1ccccc1)c1ccc(OCCN)cc1)c1ccccc1 [Compound 18, 2-(4-(1,2-Diphenylbut-1-en-1-yl)phenoxy)ethan-1-amine] | 0% competition | –

Further lines, with some results ahead:

Row | Percent ER competition, ER-α (recombinant human ER-α) | Compound | other results
7 | 48% competition | N#CC/C(=C(/c1ccc(O)cc1)c1ccc(OCCN)cc1)c1ccccc1 [Compound 40, 4-(4-(2-Aminoethoxy)phenyl)-4-(4-hydroxyphenyl)-3-phenylbut-3-enenitrile] | –
8 | 60% competition | CC/C(=C(/c1ccc(O)cc1)c1ccc(OCCBr)cc1)c1ccccc1 [Compound 50, 4-(1-(4-(2-Bromoethoxy)phenyl)-2-phenylbut-1-en-1-yl)phenol] | –
9 | 62% competition | CC/C(=C(/c1ccc(O)cc1)c1ccc(OCCCl)cc1)c1ccccc1 [Compound 55a, 4-(1-(4-(2-Chloroethoxy)phenyl)-2-phenylbut-1-en-1-yl)phenol] | –
10 | 59% competition | NCCOc1ccc(/C(=C(\Cn2ccnc2)c2ccccc2)c2ccc(O)cc2)cc1 [Compound 41, 4-(1-(4-(2-Aminoethoxy)phenyl)-3-(1H-imidazol-1-yl)-2-phenylprop-1-en-1-yl)phenol] | –

Source: paper PMC4687028 (Journal of medicinal chemistry, 2015)
